Reference: the NIST ThermoML archive (doi:10.1021/acs.jced.8b00132)
Where “and” joins values, the source holds several entries; their conditions need not be identical. Equal values may be shown once.

O=C(C(F)(F)C(F)(F)F)C(F)(C(F)(F)F)C(F)(F)F [dodecafluoro-2-methylpentan-3-one]
Details	thermal conductivity
329.25 K, 73 kPa, Gas, hot wire	0.0137 W/m/K
329.26 K, 72 kPa, Gas, hot wire	0.01377 W/m/K and 0.01374 W/m/K
329.31 K, 120 kPa, Gas, hot wire	0.01393 W/m/K
329.32 K, 120 kPa, Gas, hot wire	0.01375 W/m/K
329.34 K, 27 kPa, Gas, hot wire	0.01343 W/m/K
329.35 K, 27 kPa, Gas, hot wire	0.01345 W/m/K
329.36 K, 26 kPa, Gas, hot wire	0.01404 W/m/K
329.37 K, 26 kPa, Gas, hot wire	0.01398 W/m/K
329.38 K, 120 kPa, Gas, hot wire	0.01375 W/m/K
329.39 K, 105 kPa, Gas, hot wire	0.01386 W/m/K
329.39 K, 120 kPa, Gas, hot wire	0.01376 W/m/K
329.4 K, 105 kPa, Gas, hot wire	0.01386 W/m/K
329.42 K, 73 kPa, Gas, hot wire	0.01371 W/m/K and 0.01373 W/m/K
329.43 K, 72 kPa, Gas, hot wire	0.01372 W/m/K and 0.01375 W/m/K
329.43 K, 67798 kPa, Liquid, transient hot wire	0.07589 W/m/K
329.43 K, 67830 kPa, Liquid, transient hot wire	0.07595 W/m/K
329.47 K, 120 kPa, Gas, hot wire	0.01394 W/m/K
329.48 K, 120 kPa, Gas, hot wire	0.01386 W/m/K
329.48 K, 57461 kPa, Liquid, transient hot wire	0.0733 W/m/K
329.49 K, 57474 kPa, Liquid, transient hot wire	0.07325 W/m/K
329.5 K, 26 kPa, Gas, hot wire	0.01349 W/m/K
329.51 K, 27 kPa, Gas, hot wire	0.01348 W/m/K
329.52 K, 26 kPa, Gas, hot wire	0.01408 W/m/K
329.53 K, 26 kPa, Gas, hot wire	0.01404 W/m/K
329.56 K, 46607 kPa, Liquid, transient hot wire	0.07024 W/m/K
329.56 K, 46614 kPa, Liquid, transient hot wire	0.07022 W/m/K
329.57 K, 105 kPa, Gas, hot wire	0.01395 W/m/K and 0.01394 W/m/K
329.57 K, 120 kPa, Gas, hot wire	0.01381 W/m/K
329.58 K, 120 kPa, Gas, hot wire	0.01371 W/m/K
329.6 K, 72 kPa, Gas, hot wire	0.01381 W/m/K
329.6 K, 73 kPa, Gas, hot wire	0.01369 W/m/K and 0.01372 W/m/K
329.6 K, 67772 kPa, Liquid, transient hot wire	0.07593 W/m/K
329.6 K, 67790 kPa, Liquid, transient hot wire	0.07593 W/m/K
329.61 K, 72 kPa, Gas, hot wire	0.01376 W/m/K
329.63 K, 36730 kPa, Liquid, transient hot wire	0.06726 W/m/K
329.63 K, 36735 kPa, Liquid, transient hot wire	0.06721 W/m/K
329.65 K, 120 kPa, Gas, hot wire	0.01392 W/m/K
329.66 K, 119 kPa, Gas, hot wire	0.0139 W/m/K
329.66 K, 57448 kPa, Liquid, transient hot wire	0.07322 W/m/K
329.68 K, 27 kPa, Gas, hot wire	0.01357 W/m/K
329.68 K, 27945 kPa, Liquid, transient hot wire	0.06427 W/m/K
329.68 K, 27946 kPa, Liquid, transient hot wire	0.0643 W/m/K
329.68 K, 57441 kPa, Liquid, transient hot wire	0.07323 W/m/K
329.69 K, 27 kPa, Gas, hot wire	0.0135 W/m/K
329.7 K, 26 kPa, Gas, hot wire	0.01403 W/m/K and 0.01401 W/m/K
329.74 K, 20516 kPa, Liquid, transient hot wire	0.0619 W/m/K
329.74 K, 20518 kPa, Liquid, transient hot wire	0.0616 W/m/K
329.74 K, 46598 kPa, Liquid, transient hot wire	0.07033 W/m/K
329.74 K, 46602 kPa, Liquid, transient hot wire	0.07022 W/m/K
329.75 K, 104 kPa, Gas, hot wire	0.01402 W/m/K
329.76 K, 104 kPa, Gas, hot wire	0.01399 W/m/K
329.77 K, 120 kPa, Gas, hot wire	0.01378 W/m/K
329.79 K, 73 kPa, Gas, hot wire	0.01373 W/m/K
329.79 K, 120 kPa, Gas, hot wire	0.01373 W/m/K
329.8 K, 14125 kPa, Liquid, transient hot wire	0.05898 W/m/K
329.8 K, 14126 kPa, Liquid, transient hot wire	0.05901 W/m/K
329.8 K, 67755 kPa, Liquid, transient hot wire	0.07593 W/m/K
329.81 K, 67741 kPa, Liquid, transient hot wire	0.07589 W/m/K
329.82 K, 36726 kPa, Liquid, transient hot wire	0.06718 W/m/K
329.82 K, 36730 kPa, Liquid, transient hot wire	0.0673 W/m/K
329.83 K, 118 kPa, Gas, hot wire	0.01407 W/m/K
329.84 K, 118 kPa, Gas, hot wire	0.01403 W/m/K
329.85 K, 73 kPa, Gas, hot wire	0.01336 W/m/K
329.86 K, 72 kPa, Gas, hot wire	0.01334 W/m/K
329.86 K, 8619 kPa, Liquid, transient hot wire	0.05649 W/m/K
329.86 K, 57414 kPa, Liquid, transient hot wire	0.07321 W/m/K
329.86 K, 57423 kPa, Liquid, transient hot wire	0.07327 W/m/K
329.87 K, 27 kPa, Gas, hot wire	0.01359 W/m/K and 0.01357 W/m/K
329.87 K, 8621 kPa, Liquid, transient hot wire	0.05651 W/m/K
329.87 K, 27941 kPa, Liquid, transient hot wire	0.06427 W/m/K
329.88 K, 27942 kPa, Liquid, transient hot wire	0.06429 W/m/K
329.91 K, 4467 kPa, Liquid, transient hot wire	0.05452 W/m/K
329.91 K, 4470 kPa, Liquid, transient hot wire	0.05445 W/m/K
329.94 K, 26 kPa, Gas, hot wire	0.01354 W/m/K and 0.01352 W/m/K
329.94 K, 20524 kPa, Liquid, transient hot wire	0.06153 W/m/K
329.94 K, 46588 kPa, Liquid, transient hot wire	0.07021 W/m/K
329.94 K, 46601 kPa, Liquid, transient hot wire	0.07018 W/m/K
329.95 K, 20523 kPa, Liquid, transient hot wire	0.06156 W/m/K
329.97 K, 120 kPa, Gas, hot wire	0.01385 W/m/K
329.97 K, 177 kPa, Liquid, transient hot wire	0.05208 W/m/K
329.97 K, 178 kPa, Liquid, transient hot wire	0.05208 W/m/K
329.99 K, 120 kPa, Gas, hot wire	0.01382 W/m/K
329.99 K, 180 kPa, Liquid, transient hot wire	0.05206 W/m/K
329.99 K, 67709 kPa, Liquid, transient hot wire	0.0759 W/m/K
